pEC50: −log10 of the molar value.
How the values were obtained:
[1] = tested on: Human immunodeficiency virus 1; experiment: Antiviral activity against HIV1 wild type NL (4 to 3) infected in human MT2 cells measured after 4 to 5 days by dual-luciferase reporter assay; type: functional, organism-based; details: Human immunodeficiency virus 1, MT2
[2] = tested on: MT2; experiment: Cytotoxicity in human MT2 cells assessed as reduction in cell viability; type: functional
[3] = tested on: Human immunodeficiency virus 1; experiment: Antiviral activity against HIV1 harbouring T332S/V362I/prR41G mutant infected in human MT2 cells measured after 4 to 5 days by dual-luciferase reporter assay; type: functional, organism-based; details: Human immunodeficiency virus 1, MT2
[4] = tested on: Human immunodeficiency virus 1; experiment: Antiviral activity against HIV1 harbouring deltaV370/T371A mutant infected in human MT2 cells measured after 4 to 5 days by dual-luciferase reporter assay; type: functional, organism-based; details: Human immunodeficiency virus 1, MT2
[5] = tested on: Human immunodeficiency virus 1; experiment: Antiviral activity against HIV1 wild type NL (4 to 3) infected in human MT2 cells measured after 4 to 5 days in presence of human serum by dual-luciferase reporter assay; type: functional, organism-based; details: Human immunodeficiency virus 1, MT2
[6] = tested on: Human immunodeficiency virus 1; experiment: Antiviral activity against HIV1 harbouring V362I/V370A mutant infected in human MT2 cells measured after 4 to 5 days by dual-luciferase reporter assay; type: functional, organism-based; details: Human immunodeficiency virus 1, MT2
[7] = AUC in rat at 5 mg/kg, po; type: ADME, organism-based; parameters: dose 5 mg/kg, route po; details: in vivo, read-out: AUC

| SMILES | pEC50 [1] | CC50 [2] | pEC50 [3] | pEC50 [4] | pEC50 [5] | pEC50 [6] | AUC [7] |
| --- | --- | --- | --- | --- | --- | --- | --- |
| C=C(C)[C@@H]1CC[C@]2(NCCN3CCC(S(C)(=O)=O)CC3)CC[C@]3(C)[C@H](CC[C@@H]4[C@@]5(C)CC=C(C6=CCC(CCO)(C(=O)O)CC6)C(C)(C)[C@@H]5CC[C@]43C)[C@@H]12 (stereo partly drawn) | 8.52 | 4.9 µM | 8.00 | 8.43 | 6.81 | 8.66 | 0.591 µM·h |
| C=C(C)[C@@H]1CC[C@]2(NCCN3CCS(=O)(=O)CC3)CC[C@]3(C)[C@H](CC[C@@H]4[C@@]5(C)CC=C(C6=CCC(CC(=O)O)CC6)C(C)(C)[C@@H]5CC[C@]43C)[C@@H]12 (stereo partly drawn) | 7.88 | 6.4 µM | 6.91 | 8.28 | 7.92 | 7.80 | – |
| C=C(C)[C@@H]1CC[C@]2(NCCN3CCS(=O)(=O)CC3)CC[C@]3(C)[C@H](CC[C@@H]4[C@@]5(C)CC=C(C6=CC7C(C6)C7C(=O)O)C(C)(C)[C@@H]5CC[C@]43C)[C@@H]12 (stereo partly drawn) | 8.64 | 6.4 µM | 6.52 | 7.78 | 7.51 | 6.18 | – |
| C=C(C)[C@@H]1CC[C@]2(NCCN3CCS(=O)(=O)CC3)CC[C@]3(C)[C@H](CC[C@@H]4[C@@]5(C)CC=C(C6=CC7(C6)CC(C(=O)O)(C(=O)O)C7)C(C)(C)[C@@H]5CC[C@]43C)[C@@H]12 | 8.89 | > 30 µM | – | – | – | – | – |
| C=C(C)[C@@H]1CC[C@]2(NCCN3CCC(S(C)(=O)=O)CC3)CC[C@]3(C)[C@H](CC[C@@H]4[C@@]5(C)CC=C(C6=CC[C@](CF)(C(=O)O)CC6)C(C)(C)[C@@H]5CC[C@]43C)[C@@H]12 | 8.64 | 7.1 µM | 8.19 | 8.09 | 7.83 | – | 24.1 µM·h |
| C=C(C)[C@@H]1CC[C@]2(NCCN3CCS(=O)(=O)CC3)CC[C@]3(C)[C@H](CC[C@@H]4[C@@]5(C)CC=C(C6=CCC(C(=O)O)CC6)C(C)(C)[C@@H]5CC[C@]43C)[C@@H]12 (stereo partly drawn) | – | 13.9 µM | – | – | – | – | 12.9 µM·h |
| C=C(C)[C@@H]1CC[C@]2(NCCN3CCC(S(C)(=O)=O)CC3)CC[C@]3(C)[C@H](CC[C@@H]4[C@@]5(C)CC=C(C6=CCC(CCCOC)(C(=O)O)CC6)C(C)(C)[C@@H]5CC[C@]43C)[C@@H]12 (stereo partly drawn) | 8.70 | 12.1 µM | 7.95 | – | 7.71 | – | – |
| C=C(C)[C@@H]1CC[C@]2(NCCN3CCS(=O)(=O)CC3)CC[C@]3(C)[C@H](CC[C@@H]4[C@@]5(C)CC=C(C6=CCC(CF)(C(=O)O)CC6)C(C)(C)[C@@H]5CC[C@]43C)[C@@H]12 (stereo partly drawn) | 8.89 | 6.8 µM | 8.41 | – | 8.02 | – | 7.7 µM·h |
| C=C(C)[C@@H]1CC[C@]2(NCCN3CCS(=O)(=O)CC3)CC[C@]3(C)[C@H](CC[C@@H]4[C@@]5(C)CC=C(C6=CC7(C6)CC(C(=O)O)C7)C(C)(C)[C@@H]5CC[C@]43C)[C@@H]12 (stereo partly drawn) | – | 10.7 µM | 6.44 | 8.24 | – | 7.31 | 11.7 µM·h |
| C=C(C)[C@@H]1CC[C@]2(NCCN3CCS(=O)(=O)CC3)CC[C@]3(C)[C@H](CC[C@@H]4[C@@]5(C)CC=C(C6=CCC(CC(=O)O)(C(=O)O)CC6)C(C)(C)[C@@H]5CC[C@]43C)[C@@H]12 (stereo partly drawn) | 8.46 | 6.4 µM | 7.85 | – | 6.87 | – | – |
| C=C(C)[C@@H]1CC[C@]2(NCCN3CCS(=O)(=O)CC3)CC[C@]3(C)[C@H](CC[C@@H]4[C@@]5(C)CC=C(C6=CCC(C(=O)O)(C(=O)O)CC6)C(C)(C)[C@@H]5CC[C@]43C)[C@@H]12 | – | 18.6 µM | 6.53 | – | – | – | – |
| C=C(C)[C@@H]1CC[C@]2(NCCN3CCC(S(C)(=O)=O)CC3)CC[C@]3(C)[C@H](CC[C@@H]4[C@@]5(C)CC=C(C6=CCC(CC(F)F)(C(=O)O)CC6)C(C)(C)[C@@H]5CC[C@]43C)[C@@H]12 (stereo partly drawn) | 8.85 | 7.2 µM | 8.40 | – | 8.02 | – | 4.29 µM·h |
| C=C(C)[C@@H]1CC[C@]2(NCCN3CCS(=O)(=O)CC3)CC[C@]3(C)[C@H](CC[C@@H]4[C@@]5(C)CC=C(C6=CCC(OC)(C(=O)O)CC6)C(C)(C)[C@@H]5CC[C@]43C)[C@@H]12 (stereo partly drawn) | 8.60 | 13.1 µM | 7.66 | – | 7.60 | – | 8.24 µM·h |
| C=C(C)[C@@H]1CC[C@]2(NCCN3CCS(=O)(=O)CC3)CC[C@]3(C)[C@H](CC[C@@H]4[C@@]5(C)CC=C(C6=CCC(COC)(C(=O)O)CC6)C(C)(C)[C@@H]5CC[C@]43C)[C@@H]12 (stereo partly drawn) | 8.82 | 4.7 µM | 7.86 | – | 8.17 | – | – |
